{"source": "patent US20250275976A1", "about": "“Methods of Treating Neuroinflammatory Conditions” (Athira Pharma, Inc., priority 2022, published 2025)", "key": {"[1]": {"test_system": "THP-1-differentiated macrophages", "experiment": "Pro-inflammatory cytokines in supernatants of LPS-challenged THP-1-differentiated macrophages", "format": "cell-based, human", "design": "key to Significant reduction in pro-inflammatory cytokine expression: IL-6 / Significant reduction in pro-inflammatory cytokine expression: TNF-α / Significant reduction in pro-inflammatory cytokine expression: IL-1β: “NS” indicates a non-significant reduction in the indicated cytokine; “+” indicates a p value <0.05 in Tukey post test; “++” indicates a p value <0.01 in Tukey post test", "settings": "for Significant reduction in pro-inflammatory cytokine expression: IL-1β / Significant reduction in pro-inflammatory cytokine expression: IL-6 / Significant reduction in pro-inflammatory cytokine expression: TNF-α: LPS 24 hrs", "excerpt": "Neuroinflammation plays a crucial role in disease progression and is a complex phenomenon involving various cells that affect many extra- and intracellular signaling pathways and cytokine production. The macrophage of the brain (microglia) is the main agent of innate immunity in the CNS and performs various functions, including neuroprotection, in response to inflammatory signals. Activated microglia participate in developing neuroinflammation, responding to toxic exogenous substances (like LPS) or endogenous substances (like amyloid-beta). Here, THP-1 cells were used as an in-vitro cell model to evaluate mechanisms relevant to CNS inflammation. Differentiation with phorbol-12-myristate-13-acetate (PMA) causes THP-1 monocyte cells to acquire functional and morphological resemblance to macrophages. LPS interacts with THP-1 differentiated macrophage through the toll-like receptor 4, triggering the inflammatory response and stimulating pro-inflammatory cytokine release and eventually leading to cellular death. Test compounds were investigated for whether they have anti-inflammatory effects on LPS-challenged macrophage cultures. THP-1-differentiated macrophages were treated with test compounds for 20 minutes, followed by 24 hrs of LPS challenge. Culture supernatants were then collected to analyzed for the presence of pro-inflammatory cytokines: interleukin 1β (IL--1β), interleukin 6 (IL-6) and tumor necrosis factor α (TNF-α).\nCytokine quantification in cell culture supernatants was accomplished by homogeneous time resolved fluorescence (HTRF) kits to assess levels of IL-1β (Human IL-1β kit, #62HIL1BPEG, Cisbio) and IL-6 (Human IL-6 kit, 62HILO6PET, Cisbio), and by ELISA (Human TNF-α ELISA kit, KHC3011, ThermoFisher) to determine the levels of TNF-α.\nData analysis was performed via 1-way ANOVA with Tukey post-test compared to LPS treatment cultures using Prism statistical software (GraphPad). Tabular data indicates significance of reduction in culture supernatants for the indicated analyte at the indicated dose."}, "Prp-TDP43^A315T mice": {"test_system": "Prp-TDP43^A315T mice", "format": "in vivo", "procedure": "Extranuclear accumulation of TDP-43 protein is a pathological hallmark of a number of neurological diseases. […] Male Prp-TDP43^A315T mice (N=10 mice per group) at 3 weeks of age were administered daily treatments of test compounds. Compound A19 was administered via subcutaneous injection, and Compound 5a and Compound 6a were administered via oral gavage. After 2 months of treatment, plasma samples were collected for cytokine quantification. […] Plasma IL-6 and TNF-α cytokine expression levels were determined using the ELISA method. The submandibular vein was punctured with a lancet and a blood drop was collected directly on a microtube containing EDTA as anticoagulant. Samples were centrifuged for 15 minutes at 1000×g at 4° C. within 20 minutes of collection. 20 μl of plasma supernatant was stored at −20° C. before ELISA analysis.\nPlasma was diluted at 1:10 in sterile PBS, and IL-6 and TNF-α quantification was performed in duplicate for each animal using 10 μl of sample per well in 96-well plates using the ELISA method (IL-6: Signa-Aldrich Cat #RAB0308, TNF-α: Sigma-Aldrich Cat #RAB0477). Statistical analysis was carried out by 2-way ANOVA with Dunnett's multiple comparisons post-test with compound-treated samples compared to vehicle-treated samples."}, "[2]": {"test_system": "Rat primary cortical neuron cultures", "settings": "LPS 24 h"}, "[3]": {"test_system": "Rat primary cortical neuron cultures", "experiment": "Neuroprotection of rat cortical neurons against LPS challenge (Cell Titer-Glo)", "settings": "at at least one dose tested"}, "[4]": {"test_system": "primary culture of both cortical neurons and microglia", "experiment": "Microglial activation (Iba1 area) after Aβ1-42 challenge", "format": "cell-based", "settings": "5 ng/ml; 15 min Pre-Aβ challenge"}, "[5]": {"settings": "2 months of treatment, doses as in the value"}}, "note": "Where two headings read alike, the source gives them in different places.", "data": [{"compound": "CCC(C)CN1CC2N(Cc3ccc(OC(F)F)cc3)CCC(=O)N2[C@@H](C)C1=O", "note": "(some centres unmarked) [Compound 6a]", "values": [{"measurement": "Expression of IL-1β and TNF-α (result in words)", "setting": "[1]; at at least one tested dose", "value": "significantly reduced"}, {"measurement": "Significant reduction in pro-inflammatory cytokine expression: IL-1β", "setting": "[1]; dose 0.1 nM", "value": "NS"}, {"measurement": "Significant reduction in pro-inflammatory cytokine expression: IL-6", "setting": "[1]; dose 0.1 nM", "value": "NS"}, {"measurement": "Significant reduction in pro-inflammatory cytokine expression: TNF-α", "setting": "[1]; dose 0.1 nM", "value": "NS"}, {"measurement": "Significant reduction in pro-inflammatory cytokine expression: IL-1β", "setting": "[1]; dose 10 nM", "value": "NS"}, {"measurement": "Significant reduction in pro-inflammatory cytokine expression: IL-6", "setting": "[1]; dose 10 nM", "value": "NS"}, {"measurement": "Significant reduction in pro-inflammatory cytokine expression: TNF-α", "setting": "[1]; dose 10 nM", "value": "NS"}, {"measurement": "Significant reduction in pro-inflammatory cytokine expression: IL-1β", "setting": "[1]; dose 1000 nM", "value": "+ (“+” indicates a p value <0.05 in Tukey post test)"}, {"measurement": "Significant reduction in pro-inflammatory cytokine expression: IL-6", "setting": "[1]; dose 1000 nM", "value": "NS"}, {"measurement": "Significant reduction in pro-inflammatory cytokine expression: TNF-α", "setting": "[1]; dose 1000 nM", "value": "+ (“+” indicates a p value <0.05 in Tukey post test)"}, {"measurement": "Significant decrease in plasma cytokine expression after 2 months of treatment: IL-6", "setting": "Prp-TDP43^A315T mice; 10 mg/kg PO daily", "value": "++++ (++++ = p < 0.0001)"}, {"measurement": "Significant decrease in plasma cytokine expression after 2 months of treatment: TNF-α", "setting": "Prp-TDP43^A315T mice; 10 mg/kg PO daily", "value": "++++ (++++ = p < 0.0001)"}, {"measurement": "Significant decrease in plasma cytokine expression after 2 months of treatment: IL-6", "setting": "Prp-TDP43^A315T mice; 20 mg/kg PO daily", "value": "++++ (++++ = p < 0.0001)"}, {"measurement": "Significant decrease in plasma cytokine expression after 2 months of treatment: TNF-α", "setting": "Prp-TDP43^A315T mice; 20 mg/kg PO daily", "value": "++++ (++++ = p < 0.0001)"}, {"measurement": "Plasma IL-6 expression (result in words)", "setting": "Prp-TDP43^A315T mice; [5]", "value": "significantly reduced expression of both cytokines at doses of 10 and 20 mg/kg"}, {"measurement": "Plasma TNF-α expression (result in words)", "setting": "Prp-TDP43^A315T mice; [5]", "value": "significantly reduced expression of both cytokines at doses of 10 and 20 mg/kg"}, {"measurement": "Significance of neuroprotection vs 1 uM LPS", "setting": "[2]; dose 0.1 nM", "value": "+++ (+++ indicates p<0.001)"}, {"measurement": "Significance of neuroprotection vs 1 uM LPS", "setting": "[2]; dose 1 nM", "value": "+++ (+++ indicates p<0.001)"}, {"measurement": "Significance of neuroprotection vs 1 uM LPS", "setting": "[2]; dose 10 nM", "value": "+++ (+++ indicates p<0.001)"}, {"measurement": "Significance of neuroprotection vs 1 uM LPS", "setting": "[2]; dose 100 nM", "value": "+++ (+++ indicates p<0.001)"}, {"measurement": "Significance of neuroprotection vs 1 uM LPS", "setting": "[2]; dose 1 μM", "value": "+++ (+++ indicates p<0.001)"}, {"measurement": "Protection of primary neurons from LPS-stimulated inflammatory toxicity (in words)", "setting": "[3]", "value": "protected primary neurons from LPS-stimulated inflammatory toxicity"}]}, {"compound": "HGF: Hepatocyte growth factor, 5 ng/ml treatment in the microglia culture", "values": [{"measurement": "Significant decrease in Iba1 area, compared to vehicle treated (Aβ challenge)", "setting": "[4]", "value": "+ (“+” indicates a p value < 0.05 in Fisher's LSD post-test compared to Aβ challenged)"}]}]}
